# Columns and labels:
# Format in all cases: cell-based, mouse
# keratin 10 promoter = experiment: Co-transfection analysis, keratin 10 promoter-luciferase reporter; settings: 1 mM calcium, 24 hours
# Method: The keratin 5 and keratin 10 promoter-luciferase constructs were provided by of Dr. Bogi Andersen (University of California, Irvine, Calif.); the involucrin promoter-luciferase construct was provided by Dr. Daniel Bikle (University of California, San Francisco, Calif.). Sub-confluent (approximately 30%) keratinocytes were transfected using TransIT-Keratinocyte according to the manufacturer's instructions. After 24 hours cells were refed with medium containing 25 μM (control) or 1 mM-Ca^2+ for an additional 24 hours. Luciferase activity was then measured using the Dual Luciferase Reporter Assay kit (Promega, Madison, Wis.) as directed by the manufacturer.
# involucrin = experiment: Involucrin protein levels by western analysis; settings: 24 hours; PG liposomes in 25 uM Ca2+ medium, or 125 uM Ca2+ alone; normalized to actin
# Method: FIGS. 15A-B illustrate that glycerol, but not xylitol or sorbitol, inhibits DNA synthesis and enhances the inhibitory effect of an elevated extracellular Ca^2+ concentration. (A) Near-confluent keratinocytes were incubated for 24 hours with 0.02 or 0.1% glycerol and DNA synthesis measured as the incorporation of [^3H] thymidine incorporation into DNA. (B) Near-confluent keratinocytes were incubated for 24 hours with the indicated concentrations of glycerol (G, squares) or equivalent concentrations of xylitol (X, circles) in SFKM containing 25 μM (control; open symbols) or 125 μM Ca^2+ (Ca^2+; closed symbols). […] [^3H]Thymidine incorporation into DNA was then determined. […] Luciferase activity was then measured using a Dual Luciferase kit as directed by the manufacturer. […] The blots were quantified using the Kodak molecular imaging software. […]
# PG was also examined for its ability to stimulate a marker of keratinocyte differentiation. Keratinocytes were treated with or without PG liposomes in 25 uM Ca^2+ (control) or 125 uM Ca^2+-containing medium for 24 hours and cell lysates were analyzed for involucrin protein levels (normalized to actin as a loading control) (FIG. 15E).
# [1] = test system: primary epidermal keratinocytes; experiment: Radiolabeled phosphatidylglycerol formation in intact keratinocytes
# Method: Primary epidermal keratinocytes were prepared from 1-3-day old neonatal ICR mice after trypsin flotation of the skin and mechanical separation of the epidermis from the dermis. The epidermal cells were released by scraping, collected by centrifugation and plated in 6-well dishes in a medium consisting of MEM containing 25 μM calcium, 2% dialyzed fetal bovine serum, 2 mM glutamine, 5 ng/mL EGF, ITS (6.25 μg/mL insulin+6.25 μg/mL transferrin+6.25 ng/mL selenious acid+5.35 μg/mL linoleic acid+1.25% bovine serum albumin), 100 U/mL penicillin, 100 μg/mL streptomycin and 0.25 μg/mL fungizone. After an overnight incubation, the cells were refed with serum-free keratinocyte medium (SFKM), in which 2% dialyzed fetal bovine serum was replaced with 90 μg/mL bovine pituitary extract. Cells were refed with fresh medium every 1-3 days.
# For the PLD assay cultured primary keratinocytes were labeled for 20-24 hours with 2.5 μCi/ml [^3H] oleic acid. The cells were then exposed to vehicle or 100 nM PMA in the presence of 0.5% ethanol for 30 minutes. To measure the formation of radiolabeled phosphatidylglycerol, cells were treated for 24 hours with SFKM containing vehicle, 250 nM 1,25-dihydroxyvitamin D3 or 125 μM calcium and then labeled for an additional 30 minutes with 1-2.5 μCi/mL [^3H] or 0.4-0.5 μCi/mL [^14C]glycerol. For experiments investigating the extracellular calcium dependence of PG formation, cells were incubated for 24 hours in SFKM containing various calcium concentrations prior to the addition of 5 μCi/mL [^3H]glycerol for 30 minutes. In some cases, cells were stimulated with 25 μM calcium (control)—or 125 μM calcium-containing SFKM for 24 hours prior to the addition of [^14C]glycerol in the presence and absence of 1% ethanol. To measure phosphatidylglycerol formation in response to PMA, unlabeled cells were stimulated with 100 nM PMA in the presence of radiolabeled glycerol, as above. Reactions were terminated and the radiolabeled phosphatidylalcohol extracted, separated by thin-layer chromatography and quantified as described by Bollag (1998), referenced above.
# keratin 5 promoter = experiment: Co-transfection analysis, keratin 5 promoter-luciferase reporter; settings: 1 mM calcium, 24 hours
# Method: FIGS. 15A-B illustrate that glycerol, but not xylitol or sorbitol, inhibits DNA synthesis and enhances the inhibitory effect of an elevated extracellular Ca^2+ concentration. (A) Near-confluent keratinocytes were incubated for 24 hours with 0.02 or 0.1% glycerol and DNA synthesis measured as the incorporation of [^3H] thymidine incorporation into DNA. (B) Near-confluent keratinocytes were incubated for 24 hours with the indicated concentrations of glycerol (G, squares) or equivalent concentrations of xylitol (X, circles) in SFKM containing 25 μM (control; open symbols) or 125 μM Ca^2+ (Ca^2+; closed symbols). (C) Near-confluent keratinocytes were incubated for 24 hours with the indicated concentrations of glycerol (G) or equivalent concentrations of sorbitol (S, triangles) in SFKM containing 25 μM (control; open symbols) or 125 μM Ca^2+ (Ca^2+; closed symbols) for 24 hours. [^3H]Thymidine incorporation into DNA was then determined. Values represent the means±SEM of 4 to 5 separate experiments performed in duplicate; *p<0.05, **p<0.01 versus the control value, †p<0.05 versus the value in the presence of Ca^2+ alone. […] After 24 hours cells were refed with medium containing no addition (control) or 0.2% glycerol for an additional 24 hours. Luciferase activity was then measured using a Dual Luciferase kit as directed by the manufacturer. […] The blots were quantified using the Kodak molecular imaging software. […]
# The keratin 5 and keratin 10 promoter-luciferase constructs were provided by of Dr. Bogi Andersen (University of California, Irvine, Calif.); the involucrin promoter-luciferase construct was provided by Dr. Daniel Bikle (University of California, San Francisco, Calif.). […] Luciferase activity was then measured using the Dual Luciferase Reporter Assay kit (Promega, Madison, Wis.) as directed by the manufacturer.
compound,measurement,setting,value
[Ca+2] [calcium],inhibition of keratin 10 expression (promoter activity),keratin 10 promoter,22%
same,"involucrin protein levels, each agent alone",involucrin,not significant effect
same,radiolabeled PG formation relative to control cells,"[1]; 24 hours pretreatment (250 nM 1,25-dihydroxyvitamin D3 or 125 μM calcium), then [3H]glycerol 30 minutes",induced an increase in the subsequent production of PG
same,calcium concentration giving maximal stimulation of radiolabeled PG formation,"[1]; range 25 μM (control) to 1 mM, 24 hours, biphasic dose dependence",125 µM
same,inhibition of keratin 5 promoter activity,keratin 5 promoter,64%

# — patent US8808715B1, “Methods and compositions for modulating keratinocyte function” (Georgia Regents Research Institute, Inc, priority 2004, dated 2014)
